Legend:
[1] = target: T1, serotoninergic 5-HT1A receptor (Homo sapiens, UniProt P08908); test: Binding assay 5-HT1A (h), [3H]8-OH-DPAT, HEK-293 cells; parameters: expressed in transfected cells; host or cells: HEK-293 cells; conditions: read-out: 5-HT1A
T1 sequence (P08908 1-422): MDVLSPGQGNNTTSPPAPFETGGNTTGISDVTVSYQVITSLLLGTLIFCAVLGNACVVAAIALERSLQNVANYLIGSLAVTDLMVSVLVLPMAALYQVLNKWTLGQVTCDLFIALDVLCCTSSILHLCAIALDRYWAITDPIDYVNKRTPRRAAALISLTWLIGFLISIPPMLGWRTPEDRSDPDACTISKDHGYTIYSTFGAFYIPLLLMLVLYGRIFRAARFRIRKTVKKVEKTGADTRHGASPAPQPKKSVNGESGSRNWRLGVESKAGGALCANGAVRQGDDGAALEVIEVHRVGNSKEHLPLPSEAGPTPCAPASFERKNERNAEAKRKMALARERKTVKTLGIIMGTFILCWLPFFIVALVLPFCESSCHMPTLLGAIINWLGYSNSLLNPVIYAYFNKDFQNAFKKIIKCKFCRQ
Procedure, shortened: (§1)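 Scintillation counting detects receptor-bound radioligand. Compound tested at 1×10^−6 M.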

[2] = target: dopaminergic D3 receptor (Homo sapiens, UniProt P35462); test: Binding assay D3 (h), [3H]methyl-spiperone, CHO cells; parameters: expressed in transfected cells; host or cells: CHO cells; conditions: read-out: D3 [%]
Sequence of dopaminergic D3 receptor (P35462 whole entry): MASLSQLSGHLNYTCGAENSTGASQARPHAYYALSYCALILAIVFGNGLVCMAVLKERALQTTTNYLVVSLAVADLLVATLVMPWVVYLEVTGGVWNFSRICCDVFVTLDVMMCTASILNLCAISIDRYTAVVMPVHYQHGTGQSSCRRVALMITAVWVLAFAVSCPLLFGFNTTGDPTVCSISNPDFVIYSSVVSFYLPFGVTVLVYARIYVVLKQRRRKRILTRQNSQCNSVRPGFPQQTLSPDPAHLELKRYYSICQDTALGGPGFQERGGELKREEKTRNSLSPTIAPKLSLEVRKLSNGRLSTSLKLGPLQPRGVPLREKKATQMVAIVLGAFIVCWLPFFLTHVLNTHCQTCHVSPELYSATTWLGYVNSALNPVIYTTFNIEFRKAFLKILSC
Procedure, shortened: as §1

[3] = system: adrenergic α1 receptor; test: Binding assay α1 (non-selective), [3H]prazosin, rat cerebral cortex; conditions: percent inhibition of control specific binding; compounds tested at 1×10^−6 M
Procedure, shortened: as §1

[4] = target: serotoninergic 5-HT7 receptor (Homo sapiens, UniProt P34969); test: Binding assay 5-HT7 (h), [3H]LSD, CHO cells; parameters: expressed in transfected cells; host or cells: CHO cells; conditions: read-out: 5-HT7
Sequence of serotoninergic 5-HT7 receptor (P34969 whole entry): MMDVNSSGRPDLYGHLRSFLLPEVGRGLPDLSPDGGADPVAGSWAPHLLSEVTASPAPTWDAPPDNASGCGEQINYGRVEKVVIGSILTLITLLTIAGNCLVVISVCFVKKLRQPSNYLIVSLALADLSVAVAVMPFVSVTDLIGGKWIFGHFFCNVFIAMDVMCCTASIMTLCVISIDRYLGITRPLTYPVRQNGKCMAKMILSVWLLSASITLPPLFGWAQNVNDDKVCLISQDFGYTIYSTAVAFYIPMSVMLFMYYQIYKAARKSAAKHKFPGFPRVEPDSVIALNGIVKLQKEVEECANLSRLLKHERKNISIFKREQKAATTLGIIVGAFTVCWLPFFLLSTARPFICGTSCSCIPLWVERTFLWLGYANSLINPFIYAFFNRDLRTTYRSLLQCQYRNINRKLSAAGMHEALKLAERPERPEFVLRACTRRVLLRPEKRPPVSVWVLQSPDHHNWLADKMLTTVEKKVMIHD
Procedure, shortened: as §1

[5] = target: T2, serotonine transporter (SERT) receptor (Homo sapiens, UniProt P31645); test: Binding assay SERT (h), [3H]imipramine, CHO cells; conditions: read-out: SERT [%]
T2 construct: expressed in transfected cells; host or cells: CHO cells
T2 sequence (P31645 whole entry): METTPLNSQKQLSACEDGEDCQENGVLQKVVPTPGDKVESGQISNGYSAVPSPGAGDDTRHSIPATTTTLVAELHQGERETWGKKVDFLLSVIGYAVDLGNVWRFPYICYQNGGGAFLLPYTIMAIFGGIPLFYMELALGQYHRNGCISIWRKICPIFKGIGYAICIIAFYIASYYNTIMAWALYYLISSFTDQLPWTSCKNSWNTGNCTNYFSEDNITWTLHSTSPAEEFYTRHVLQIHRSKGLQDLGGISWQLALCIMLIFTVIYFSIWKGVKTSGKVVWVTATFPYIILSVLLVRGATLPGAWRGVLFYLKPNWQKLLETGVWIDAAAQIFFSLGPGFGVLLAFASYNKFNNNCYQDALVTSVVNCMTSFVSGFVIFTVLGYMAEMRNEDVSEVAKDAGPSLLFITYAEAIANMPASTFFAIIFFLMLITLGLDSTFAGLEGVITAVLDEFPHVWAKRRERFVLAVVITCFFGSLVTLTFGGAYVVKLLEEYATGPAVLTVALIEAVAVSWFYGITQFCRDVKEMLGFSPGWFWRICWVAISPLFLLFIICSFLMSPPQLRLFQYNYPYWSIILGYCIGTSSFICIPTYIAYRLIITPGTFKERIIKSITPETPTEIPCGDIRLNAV
Procedure, shortened: as §1

[6] = target: serotoninergic 5-HT6 receptor (Homo sapiens, UniProt P50406); test: Binding assay 5-HT6 (h), [3H]LSD, CHO cells; parameters: expressed in transfected cells; host or cells: CHO cells; conditions: read-out: 5-HT6
Sequence of serotoninergic 5-HT6 receptor (P50406 whole entry): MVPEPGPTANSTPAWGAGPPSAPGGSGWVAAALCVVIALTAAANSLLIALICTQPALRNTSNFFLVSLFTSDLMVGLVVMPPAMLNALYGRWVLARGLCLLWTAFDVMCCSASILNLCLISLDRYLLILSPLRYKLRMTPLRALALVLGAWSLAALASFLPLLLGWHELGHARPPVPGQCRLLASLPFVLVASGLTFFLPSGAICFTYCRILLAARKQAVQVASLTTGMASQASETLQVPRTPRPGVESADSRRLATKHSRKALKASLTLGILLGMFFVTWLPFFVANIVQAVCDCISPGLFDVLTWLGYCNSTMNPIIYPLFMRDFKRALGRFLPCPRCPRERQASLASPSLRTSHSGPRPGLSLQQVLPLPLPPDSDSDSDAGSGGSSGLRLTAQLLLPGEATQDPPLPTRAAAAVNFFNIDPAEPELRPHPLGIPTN
Procedure, shortened: as §1

[7] = target: serotoninergic 5-HT2A receptor (Homo sapiens, UniProt P28223); test: Binding assay 5-HT2A (h), [3H]ketanserin, HEK-293 cells; parameters: expressed in transfected cells; host or cells: HEK-293 cells; conditions: read-out: 5-HT2A
Sequence of serotoninergic 5-HT2A receptor (P28223 whole entry): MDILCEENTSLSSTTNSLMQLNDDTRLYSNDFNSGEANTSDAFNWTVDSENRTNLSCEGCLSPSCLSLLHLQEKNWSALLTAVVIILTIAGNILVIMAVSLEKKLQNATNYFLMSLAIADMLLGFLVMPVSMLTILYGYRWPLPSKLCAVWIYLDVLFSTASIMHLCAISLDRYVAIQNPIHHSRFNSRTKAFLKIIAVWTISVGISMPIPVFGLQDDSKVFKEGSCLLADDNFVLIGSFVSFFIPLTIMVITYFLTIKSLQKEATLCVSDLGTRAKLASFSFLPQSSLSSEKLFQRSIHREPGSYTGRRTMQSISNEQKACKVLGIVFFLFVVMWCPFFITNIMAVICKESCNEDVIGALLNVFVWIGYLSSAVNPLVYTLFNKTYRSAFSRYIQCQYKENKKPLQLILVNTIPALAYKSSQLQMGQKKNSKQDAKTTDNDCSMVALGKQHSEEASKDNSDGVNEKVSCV
Procedure, shortened: as §1

[8] = target: dopaminergic D2 receptor (Homo sapiens, UniProt P14416); test: Binding assay D2S (h), [3H]methyl-spiperone, HEK-293 cells; parameters: expressed in transfected cells; host or cells: HEK-293 cells; conditions: read-out: D2 [%]
Sequence of dopaminergic D2 receptor (P14416 1-414 isoform P14416-2): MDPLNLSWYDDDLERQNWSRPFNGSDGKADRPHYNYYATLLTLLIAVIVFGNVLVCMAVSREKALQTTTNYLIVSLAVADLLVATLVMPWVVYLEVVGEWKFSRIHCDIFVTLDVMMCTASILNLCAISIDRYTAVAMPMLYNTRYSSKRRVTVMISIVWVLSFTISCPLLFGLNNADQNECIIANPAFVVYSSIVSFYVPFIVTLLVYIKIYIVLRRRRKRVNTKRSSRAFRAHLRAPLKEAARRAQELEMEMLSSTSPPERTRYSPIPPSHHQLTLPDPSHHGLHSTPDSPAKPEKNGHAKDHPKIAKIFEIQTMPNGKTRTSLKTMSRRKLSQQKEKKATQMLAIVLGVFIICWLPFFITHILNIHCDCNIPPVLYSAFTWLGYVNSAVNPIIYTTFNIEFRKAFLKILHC
Procedure, shortened: as §1

| Structure (SMILES) | inhibition at 1 µM [1] | inhibition at 1 µM [2] | α1 [%] [3] | inhibition at 1 µM [4] | inhibition at 1 µM [5] | inhibition at 1 µM [6] | inhibition at 1 µM [7] | inhibition at 1 µM [8] |
| --- | --- | --- | --- | --- | --- | --- | --- | --- |
| O=S(=O)(NCCCCN1CCN(c2cccc3c2OCCO3)CC1)c1ccc2c(c1)OCO2 [Compound 404, N-[4-[4-(2,3-Dihydro-1,4-benzodioxin-5-yl)piperazin-1-yl]butyl]-1,3-benzodioxole-5-sulphonamide] | 97% | 92% | 93% | 96% | -9% | 4% | 55% | 60% |
| O=S(=O)(NCCCCN1CCN(c2noc3ccccc23)CC1)c1ccc(Br)cc1 [Compound 274, N-[4-[4-(1,2-Benzoxazol-3-yl)piperazin-1-yl]butyl]-4-bromobenzenesulphonamide] | 73% | 91% | 99% | 83% | 30% | 81% | 97% | 96% |
| O=S(=O)(NCCCCN1CCN(c2noc3ccccc23)CC1)c1cccc(Cl)c1 [Compound 85, N-[4-[4-(1,2-Benzoxazol-3-yl)piperazin-1-yl]butyl]-3-chlorobenzenesulphonamide] | 54% | 77% | 98% | 99% | 2% | 77% | 88% | 100% |
| O=S(=O)(NCCCCN1CCN(c2cccc3c2OCCO3)CC1)c1cccc(O)c1 [Compound 393, N-[4-[4-(2,3-Dihydro-1,4-benzodioxin-5-yl)piperazin-1-yl]butyl]-3-hydroxybenzenesulphonamide] | 93% | 92% | 91% | 91% | -7% | 9% | 47% | 46% |
| O=S(=O)(NCCCN1CCC(c2noc3cc(F)ccc23)CC1)c1cccs1 [Compound 339, N-[3-[4-(6-Fluoro-1,2-benzoxazol-3-yl)piperidin-1-yl]propyl]thiophene-2-sulphonamide] | 76% | 100% | 108% | 89% | 3% | 89% | 82% | 96% |
| N#Cc1cccc(S(=O)(=O)NCCCCN2CCN(c3nsc4ccccc34)CC2)c1 [Compound 73, N-[4-[4-(1,2-Benzothiazol-3-yl)piperazin-1-yl]butyl]-3-cyanobenzenesulphonamide] | 92% | 94% | 98% | 91% | 37% | 82% | 81% | 102% |
| O=S(=O)(NCCCN1CCN(c2nsc3ccccc23)CC1)c1cnc2ccccn12 [Compound 76, N-[3-[4-(1,2-Benzothiazol-3-yl)piperazin-1-yl]propyl]imidazo[1,2-a]pyridine-3-sulphonamide] | 90% | 71% | 95% | 86% | 15% | 70% | 81% | 94% |
| Cn1ccc2c(S(=O)(=O)NCCCCN3CCC(c4noc5cc(F)ccc45)CC3)cccc21 [Compound 310, N-[4-[4-(6-Fluoro-1,2-benzoxazol-3-yl)piperidin-1-yl]butyl]-1-methyl-indole-4-sulphonamide] | 91% | 97% | 107% | 89% | 57% | 89% | 99% | 96% |
| Cc1[nH]c2ccc(Cl)cc2c1C1=CCN(CCCNS(=O)(=O)c2ccc(F)cc2)CC1 [Compound 443, N-[3-[4-(5-Chloro-2-methyl-1H-indol-3-yl)-3,6-dihydro-2H-pyridin-1-yl]propyl]-4-fluorobenzenesulphonamide] | 59% | 71% | 41% | 54% | -9% | 92% | 67% | 22% |
| N#Cc1ccc(S(=O)(=O)NCCCCN2CCC(c3noc4cc(F)ccc34)CC2)cc1 [Compound 305, 4-Cyano-N-[4-[4-(6-fluoro-1,2-benzoxazol-3-yl)piperidin-1-yl]butyl]benzenesulphonamide] | 58% | 103% | 99% | 85% | -18% | 78% | 96% | 88% |
| O=S(=O)(NCCCCN1CCC(c2noc3cc(F)ccc23)CC1)c1cccc(F)c1 [Compound 107, 3-Fluoro-N-[4-[4-(6-fluoro-1,2-benzoxazol-3-yl)piperidin-1-yl]butyl]benzenesulphonamide] | 38% | 97% | 100% | 91% | -12% | 75% | 95% | 104% |
| O=S(=O)(NCCCCN1CCC(c2noc3cc(F)ccc23)CC1)c1ccc2cn[nH]c2c1 [Compound 319, N-[4-[4-(6-Fluoro-1,2-benzoxazol-3-yl)piperidin-1-yl]butyl]-1H-indazole-6-sulphonamide] | 55% | 90% | 94% | 90% | 8% | 87% | 88% | 109% |
| Cc1[nH]c2ccc(Cl)cc2c1C1=CCN(CCCCNS(=O)(=O)c2cccc3ccccc23)CC1 [Compound 366, N-[4-[4-(5-Chloro-2-methyl-1H-indol-3-yl)-3,6-dihydro-2H-pyridin-1-yl]butyl]-naphthalene-1-sulphonamide] | 34% | 81% | 8% | 53% | 8% | 98% | 49% | 54% |
